Patent US20220386606A1, “SPECIFICALLY SUBSTITUTED 3-PHENYL-5-SPIROCYCLOPENTYL-3-PYRROLIN-2-ONES AND THEIR USE AS HERBICIDES” (Bayer Aktiengesellschaft, priority 2019, published 2022)

Assays:
LOLRI [1] = assay: Pre-emergence herbicidal action against LOLRI (Table 8, titled post-emergence at 320 g/ha); format: in vivo, Lolium rigidum; settings: table stands in the pre-emergence section
Summary of the method: (§1)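 Visual scoring after 3 weeks in the greenhouse gives percent activity (100% = dead, 0% = like untreated). Compounds, formulated as WP or EC, were applied to the soil surface over freshly sown seeds in sandy loam, water rate 600 to 800 L/ha plus 0.2% wetting agent.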

SETVI [2] = assay: Post-emergence herbicidal action against SETVI; format: in vivo, Setaria viridis; settings: 80 g/ha, visual assessment about 3 weeks after treatment vs untreated controls
Summary of the method: (§2)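 Greenhouse post-emergence test; one-leaf stage (2–3 wk post-sowing), sandy loam. Spray: WP/EC in water, 600–800 l/ha, 0.2% wetting agent, onto green parts. Visual rating ~3 wk later, % vs untreated (100% = dead, 0% = like control).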

SETVI [3] = assay: Pre-emergence herbicidal action against SETVI; format: in vivo, Setaria viridis; settings: 320 g/ha, scored visually after 3 weeks vs untreated controls
Summary of the method: as §1

VIOTR = assay: Pre-emergence herbicidal action against VIOTR; format: in vivo, Viola tricolor; settings: 320 g/ha
Summary of the method: as §1

ALOMY [4] = assay: Post-emergence herbicidal action against ALOMY; format: in vivo, Alopecurus myosuroides; settings: 80 g/ha, visual assessment after about 3 weeks
Summary of the method: as §2

DIGSA [5] = assay: Pre-emergence herbicidal action against DIGSA; format: in vivo, Digitaria sanguinalis; settings: 320 g/ha, scored visually after 3 weeks vs untreated controls
Summary of the method: as §1

DIGSA [6] = assay: Post-emergence herbicidal action against DIGSA; format: in vivo, Digitaria sanguinalis; settings: 80 g/ha, visual assessment about 3 weeks after treatment vs untreated controls
Summary of the method: as §2

ALOMY [7] = assay: Pre-emergence herbicidal action against ALOMY; format: in vivo, Alopecurus myosuroides; settings: 320 g/ha, scored visually after 3 weeks vs untreated controls
Summary of the method: as §1

AVEFA [8] = assay: Pre-emergence herbicidal action against AVEFA; format: in vivo, Avena fatua; settings: 320 g/ha, scored visually after 3 weeks vs untreated controls
Summary of the method: as §1

ECHCG [9] = assay: Post-emergence herbicidal action against ECHCG; format: in vivo, Echinochloa crus-galli; settings: 80 g/ha, visual assessment about 3 weeks after treatment vs untreated controls
Summary of the method: as §2

ECHCG [10] = assay: Pre-emergence herbicidal action against ECHCG; format: in vivo, Echinochloa crus-galli; settings: 320 g/ha, scored visually after 3 weeks vs untreated controls
Summary of the method: as §1

LOLRI [11] = assay: Post-emergence herbicidal action against LOLRI; format: in vivo, Lolium rigidum; settings: 80 g/ha, visual assessment about 3 weeks after treatment vs untreated controls
Summary of the method: as §2

MATIN = assay: Pre-emergence herbicidal action against MATIN; format: in vivo; settings: 320 g/ha
Source text: (§3) Seeds of monocotyledonous and dicotyledonous weed plants and crop plants are laid out in sandy loam soil in wood-fiber pots and covered with soil. The compounds of the invention, formulated in the form of wettable powders (WP) or as emulsion concentrates (EC), are then applied to the surface of the covering soil as aqueous suspension or emulsion at a water application rate equating to 600 to 800 L/ha with addition of 0.2% wetting agent.
(§4) After the treatment, the pots are placed in a greenhouse and kept under good growth conditions for the trial plants. The damage to the test plants is scored visually after a test period of 3 weeks by comparison with untreated controls (herbicidal activity in percent (%): 100% activity=the plants have died, 0% activity=like control plants).

AMARE = assay: Pre-emergence herbicidal action against AMARE; format: in vivo, Amaranthus retroflexus; settings: 320 g/ha
Summary of the method: as §1

VERPE = assay: Pre-emergence herbicidal action against VERPE; format: in vivo, Veronica persica; settings: 320 g/ha
Source text: as §3, §4

AVEFA [12] = assay: Post-emergence herbicidal action against AVEFA; format: in vivo, Avena fatua; settings: 80 g/ha, visual assessment after about 3 weeks
Summary of the method: as §2

Question: Which “Pre-emergence herbicidal action against LOLRI in %” value (LOLRI [1]) does the source give for CC#Cc1cc(Br)c(C2=C(OC(=O)OCC)C3(CCC(COCC)C3)NC2=O)c(OC)c1 (stereo not drawn) [Example P-01] here?
Answer: 100%

Question: What about the “Post-emergence action against SETVI in %” value (SETVI [2]) of the same compound?
Answer: 100%

Question: What about the “Pre-emergence action against SETVI in %” value (SETVI [3]) of the same compound?
Answer: 100%

Question: What about the “Pre-emergence action against VIOTR in %” value (VIOTR) of the same compound?
Answer: 100%

Question: And the “Post-emergence action against ALOMY in %” value (ALOMY [4])?
Answer: 100%

Question: And the “Pre-emergence action against DIGSA in %” value (DIGSA [5])?
Answer: 100%

Question: And the “Post-emergence action against DIGSA in %” value (DIGSA [6])?
Answer: 100%

Question: What about the “Pre-emergence action against ALOMY in %” value (ALOMY [7]) of the same compound?
Answer: 100%

Question: And the “Pre-emergence action against AVEFA in %” value (AVEFA [8])?
Answer: 100%

Question: And the “Post-emergence action against ECHCG in %” value (ECHCG [9])?
Answer: 100%

Question: And the “Pre-emergence action against ECHCG in %” value (ECHCG [10])?
Answer: 100%

Question: What about the “Post-emergence action against LOLRI in %” value (LOLRI [11]) of the same compound?
Answer: 100%

Question: What about the “Pre-emergence action against MATIN in %” value (MATIN) of the same compound?
Answer: 80%

Question: And the “Pre-emergence action against AMARE in %” value (AMARE)?
Answer: 100%

Question: And the “Pre-emergence action against VERPE in %” value (VERPE)?
Answer: 100%

Question: For CC#Cc1cc(Br)c(C2=C(OC(=O)OCC)C3(CCC(COCC)C3)NC2=O)c(OC)c1 (stereo not drawn) [Example P-05], which “Pre-emergence herbicidal action against LOLRI in %” value (LOLRI [1]) is on record?
Answer: 100%

Question: And the “Post-emergence action against SETVI in %” value (SETVI [2])?
Answer: 100%

Question: What about the “Pre-emergence action against SETVI in %” value (SETVI [3]) of the same compound?
Answer: 100%

Question: And the “Pre-emergence action against VIOTR in %” value (VIOTR)?
Answer: 100%

Question: And the “Post-emergence action against ALOMY in %” value (ALOMY [4])?
Answer: 100%

Question: And the “Pre-emergence action against DIGSA in %” value (DIGSA [5])?
Answer: 100%

Question: And the “Post-emergence action against DIGSA in %” value (DIGSA [6])?
Answer: 100%

Question: And the “Pre-emergence action against ALOMY in %” value (ALOMY [7])?
Answer: 100%

Question: What about the “Pre-emergence action against AVEFA in %” value (AVEFA [8]) of the same compound?
Answer: 100%

Question: What about the “Post-emergence action against ECHCG in %” value (ECHCG [9]) of the same compound?
Answer: 100%

Question: What about the “Pre-emergence action against ECHCG in %” value (ECHCG [10]) of the same compound?
Answer: 100%

Question: What about the “Post-emergence action against LOLRI in %” value (LOLRI [11]) of the same compound?
Answer: 100%

Question: And the “Pre-emergence action against MATIN in %” value (MATIN)?
Answer: 90%

Question: What about the “Pre-emergence action against AMARE in %” value (AMARE) of the same compound?
Answer: 100%

Question: What about the “Pre-emergence action against VERPE in %” value (VERPE) of the same compound?
Answer: 80%

Question: What does the source list for CC#Cc1cc(C)c(C2=C(OC(=O)OCC)C3(CCC(COC)C3)NC2=O)c(OC)c1 (stereo not drawn) [Example P-55]?
Answer: Post-emergence action against AVEFA in % (AVEFA [12]): 100%; Pre-emergence herbicidal action against LOLRI in % (LOLRI [1]): 100%; Post-emergence action against SETVI in % (SETVI [2]): 100%; Pre-emergence action against SETVI in % (SETVI [3]): 100%; Pre-emergence action against VIOTR in % (VIOTR): 100%; Post-emergence action against ALOMY in % (ALOMY [4]): 100%; Pre-emergence action against DIGSA in % (DIGSA [5]): 100%; Post-emergence action against DIGSA in % (DIGSA [6]): 100%; Pre-emergence action against ALOMY in % (ALOMY [7]): 100%; Pre-emergence action against AVEFA in % (AVEFA [8]): 80%; Post-emergence action against ECHCG in % (ECHCG [9]): 100%; Pre-emergence action against ECHCG in % (ECHCG [10]): 100%; Post-emergence action against LOLRI in % (LOLRI [11]): 100%; Pre-emergence action against MATIN in % (MATIN): 90%; Pre-emergence action against VERPE in % (VERPE): 80%

Question: For C#CCOCC1CCC2(C1)NC(=O)C(c1c(C)cc(C#CC)cc1OC)=C2OC(=O)OCC (stereo not drawn) [Example P-101], which “Post-emergence action against AVEFA in %” value (AVEFA [12]) is on record?
Answer: 80%

Question: What about the “Pre-emergence herbicidal action against LOLRI in %” value (LOLRI [1]) of the same compound?
Answer: 100%

Question: And the “Post-emergence action against SETVI in %” value (SETVI [2])?
Answer: 100%

Question: And the “Pre-emergence action against SETVI in %” value (SETVI [3])?
Answer: 100%

Question: And the “Pre-emergence action against VIOTR in %” value (VIOTR)?
Answer: 80%

Question: What about the “Post-emergence action against ALOMY in %” value (ALOMY [4]) of the same compound?
Answer: 100%

Question: What about the “Pre-emergence action against DIGSA in %” value (DIGSA [5]) of the same compound?
Answer: 100%

Question: What about the “Post-emergence action against DIGSA in %” value (DIGSA [6]) of the same compound?
Answer: 90%

Question: What about the “Pre-emergence action against ALOMY in %” value (ALOMY [7]) of the same compound?
Answer: 100%

Question: And the “Pre-emergence action against AVEFA in %” value (AVEFA [8])?
Answer: 100%

Question: And the “Post-emergence action against ECHCG in %” value (ECHCG [9])?
Answer: 100%

Question: What about the “Pre-emergence action against ECHCG in %” value (ECHCG [10]) of the same compound?
Answer: 100%

Question: What about the “Post-emergence action against LOLRI in %” value (LOLRI [11]) of the same compound?
Answer: 100%

Question: And the “Pre-emergence action against MATIN in %” value (MATIN)?
Answer: 80%

Question: And the “Pre-emergence action against AMARE in %” value (AMARE)?
Answer: 100%

Question: Which results are given for C#CCOCC1CCC2(C1)NC(=O)C(c1c(C)cc(C#CC)cc1OC)=C2OC(=O)OCC (stereo not drawn) [Example P-103]?
Answer: Post-emergence action against AVEFA in % (AVEFA [12]): 90%; Pre-emergence herbicidal action against LOLRI in % (LOLRI [1]): 100%; Post-emergence action against SETVI in % (SETVI [2]): 100%; Pre-emergence action against SETVI in % (SETVI [3]): 100%; Post-emergence action against ALOMY in % (ALOMY [4]): 100%; Pre-emergence action against DIGSA in % (DIGSA [5]): 100%; Post-emergence action against DIGSA in % (DIGSA [6]): 100%; Pre-emergence action against ALOMY in % (ALOMY [7]): 100%; Pre-emergence action against AVEFA in % (AVEFA [8]): 100%; Post-emergence action against ECHCG in % (ECHCG [9]): 100%; Pre-emergence action against ECHCG in % (ECHCG [10]): 100%; Post-emergence action against LOLRI in % (LOLRI [11]): 90%; Pre-emergence action against MATIN in % (MATIN): 90%; Pre-emergence action against AMARE in % (AMARE): 100%; Pre-emergence action against VERPE in % (VERPE): 90%
